Measured values taken from paper PMC8399019, “Inhibition of Cysteine Proteases by 6,6′-Dihydroxythiobinupharidine (DTBN) from Nuphar lutea” (Molecules, 2021).

What was measured:
Format in all cases: biochemical
Human Cathepsin S = biological target: T1, Human Cathepsin S (Homo sapiens, UniProt P25774); experiment: Enzyme inhibition assay, Human Cathepsin S (fluorometric); conditions: triplicates, value (SD)
T1 construct: purchased ABCAM (so in the source) 1183-cy
Experimental: (§1) Enzyme inhibition assays were performed in triplicates using transparent 96-well plates for Calpain, Trypsin, Papain, Cathepsin L and Cathepsin B (167008; Nunc, Roskilde, Denmark), or black ones for Cathepsin S, (Greiner 96 Polystyrol GRE96fb), according to manufacturers’ instructions. Briefly, a reaction mixture of 100 µL contained: 45µL of enzyme in assay buffer, 5 µL of inhibitor diluted in DMSO. 50 µL substrate prepared in assay buffer according to manufacturers’ instructions. The inhibitor was serially diluted in DMSO to concentrations from 0.0075 µg/µL to 0.0000075 µg/µL. A total of […] DMSO was added to the control sample. The enzyme substrate mix was added last, just before starting the fluorometric measurement. Data were collected for 1.5 h at 60 sec intervals.
(§2) Papain Latex (cat. No. p3125), Human Cathepsin B (cat.no. C0150), Trypsin and Calpain (cat. No. ab910119) and the substrate, casein-FITC, were obtained from Sigma-Aldrich. The assay was carried out in 0.3 M potassium chloride, 0.1 mM EDTA, and 3 mM DTT pH 6.5. Ex/Em = 485–535 nm. Human Cathepsins S (cat. No. 1183-cy) and L (cat.no. ab174030) and their substrates were Mca-RPKPVE-Nval-WRK (Dnp)-NH2 (ES002) and Ac-FR-AFC, respectively. They were obtained from ABCAM. Assay buffer for Human Cathepsin S was 50 mM NaOAc, 250 mM NaCl, 5 mM DTT pH 4.5. […]

Human Cathepsin L = biological target: T2, Human Cathepsin L (Homo sapiens, UniProt P07711); experiment: Enzyme inhibition assay, Human Cathepsin L (fluorometric); conditions: triplicates, value (SD)
T2 construct: purchased ABCAM ab174030
T2 sequence (P07711 114-333): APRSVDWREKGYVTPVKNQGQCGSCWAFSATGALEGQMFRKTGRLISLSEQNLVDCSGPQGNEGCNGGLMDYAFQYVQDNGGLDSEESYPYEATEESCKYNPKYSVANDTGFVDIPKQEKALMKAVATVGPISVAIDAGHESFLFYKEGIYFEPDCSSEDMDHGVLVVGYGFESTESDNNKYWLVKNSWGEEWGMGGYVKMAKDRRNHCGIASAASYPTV
Experimental: as §1, §2

Human Cathepsin B = biological target: T3, Human Cathepsin B (Homo sapiens, UniProt P07858); experiment: Enzyme inhibition assay, Human Cathepsin B (casein-FITC); conditions: triplicates, value (SD)
T3 construct: purchased Sigma-Aldrich C0150
Experimental: as §1, §2

Papain Latex = biological target: T4, Papain Latex (Carica papaya, UniProt P00784); experiment: Enzyme inhibition assay, Papain Latex (casein-FITC)
T4 construct: purchased Sigma-Aldrich p3125
T4 sequence (P00784 134-345): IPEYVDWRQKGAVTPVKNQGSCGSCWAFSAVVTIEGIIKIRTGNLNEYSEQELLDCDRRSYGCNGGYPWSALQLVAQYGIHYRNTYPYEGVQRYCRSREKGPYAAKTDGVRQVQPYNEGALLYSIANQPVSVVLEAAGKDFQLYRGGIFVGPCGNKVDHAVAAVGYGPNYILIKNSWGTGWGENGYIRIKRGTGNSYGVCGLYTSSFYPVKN
Experimental: as §1, §2

T1 sequence (P25774 115-331): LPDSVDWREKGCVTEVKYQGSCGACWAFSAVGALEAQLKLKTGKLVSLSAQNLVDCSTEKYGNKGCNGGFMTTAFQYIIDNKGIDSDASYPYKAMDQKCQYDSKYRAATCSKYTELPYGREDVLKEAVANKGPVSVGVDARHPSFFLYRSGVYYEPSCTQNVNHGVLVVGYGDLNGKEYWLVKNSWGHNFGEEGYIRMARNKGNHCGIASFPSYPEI

`CC1CCC(c2ccoc2)N2C1CCC1(CSC3(CCC4C(C)CCC(c5ccoc5)N4C3O)C1)C2O` (stereo not shown) [DTBN, 6,6′-dihydroxythiobinupharidine] showed an IC50 (Human Cathepsin S) of 3.2 µM, an IC50 (Human Cathepsin L) of 13.2 µM and an IC50 (Human Cathepsin B) of 1360 µM. It also gave an IC50 (Papain Latex) of 70.4 µM.
